Laboratory results as given in PMC9250534, “Synthesis and direct assay of large macrocycle diversities by combinatorial late-stage modification at picomole scale” (Nature Communications, 2022).
Numbered stars: 1 amine (or outer) side, 2 acyl side, 3 side chain; on linkers, the order of the positions; unused ones are H or OH. Bridge positions count the residues as written; N and C are the ends. Square brackets hold non-standard residues; d marks the D form. Peptide text beside a SMILES is read from it. * marks the point of attachment. ξ: configuration not given here. ξPro(4-NHCO(5-Cl-2-thienyl)) = O=C(NC1CNC(C(=O)O)C1)c1ccc(Cl)s1; Isoorotoyl = O=C(c1c[nH]c(=O)[nH]c1=O)*; 2Thenoyl(5-Cl) = O=C(c1ccc(Cl)s1)*; Phenoxyacetyl = O=C(COc1ccccc1)*; Cysteamide = C(CS[*:3])N[*:1]; Isovaleryl = CC(C)CC(=O)*; Orn = NCCC[C@H](N)C(=O)O; Dap = NC[CH](N)C(=O)O; Bz = O=C(c1ccccc1)*; βAla = NCCC(=O)O; Mpa = O=C(O)CCS

Target: T1, thrombin (Homo sapiens, UniProt P00734)
T1 construct: consists of two polypeptide chains of 36 (light chain) and 259 amino acid
Assay: Thrombin inhibition screen of crude macrocycle reactions (residual thrombin activity, fluorogenic substrate Z-Gly-Gly-Arg-AMC)
Assay type: biochemical
Settings: 10 µM macrocycle concentration; for percent residual thrombin activity: crude reactions, Library 1a-l, scaffold AA1-AA2-AA3 combined with 1-16 or '-'; for % thrombin activity, Original screen / % thrombin activity, Repeat screen: macrocycles containing acid 14, crude reaction; for % thrombin activity, Repeat screen: replicate reaction and screen
Summary of the method: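 Residual activity was measured as the AMC release rate after adding 50 μM Z-Gly-Gly-Arg-AMC. This followed a 10-min room-temperature preincubation of 2 nM thrombin with 10 μM single macrocycles in pH 7.4 Tris buffer (0.6% DMSO). Percent inhibition was taken against the mean slope of DMSO controls.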

| Structure (SMILES) | percent residual thrombin activity | % thrombin activity, Original screen | % thrombin activity, Repeat screen | also measured |
| --- | --- | --- | --- | --- |
| CC[C@H](C)[C@@H]1NC(=O)CCNC(=O)[C@H](CCCNC(=O)c2ccc(OC)nc2)NC(=O)CCSSCCNC1=O [D2-B2-I/10] | 104.624% | – | – | – |
| O=C1CCSSCCNC(=O)[C@H](Cc2ccccc2)NC(=O)CCNC(=O)[C@H](CNC(=O)c2ccc(Cl)s2)N1 [X D3 B2 F] | – | 56.1% | 56.2% | – |
| O=C1CCSSCCNC(=O)C(Cc2ccc(O)cc2)NC(=O)C2CCCN(C2)C(=O)C(CCCCNC(=O)c2c[nH]c(=O)[nH]c2=O)N1 (centres unmarked) [D1-B4-y/11] | 105.223% | – | – | – |
| O=C1CCSSCCNC(=O)[C@H](CCCCNC(=O)COc2ccccc2)NC(=O)[C@H](Cc2ccc(O)cc2)NC(=O)C2(CC2)CN1 [B6-Y-D1/13] | 106.992% | – | – | – |
| CC(C)C1NC(=O)CCSSCCNC(=O)C(CNC(=O)c2ccc(Cl)s2)NC(=O)C2CCCN(C2)C1=O (centres unmarked) [X V B4 D3] | – | 75.0% | 73.4% | – |
| NC(=O)CC[C@@H]1NC(=O)C2(CC2)CNC(=O)CCSSCCNC(=O)[C@H](CCCNC(=O)c2ccc(Cl)s2)NC1=O [X B6 Q D2] | – | 99.3% | 95.8% | – |
| C[C@H]1NC(=O)[C@H](CCCNC(=O)c2ccccc2)NC(=O)CCSSCCNC(=O)CCNC1=O [D2-a-B2/1] ([Mpa][Orn](Bz)[dA][βAla]-Cysteamide; disulfide 1-C) | 113.72% | – | – | – |
| CC(C)CC1NC(=O)C2(CC2)CNC(=O)C2CC(NC(=O)c3ccc(Cl)s3)CN2C(=O)CCSSCCNC1=O (centres unmarked) [X D5 B6 L] | – | 114.0% | 116.8% | – |
| O=C1CCSSCCNC(=O)[C@H](Cc2ccc(O)cc2)NC(=O)[C@H](CCCNC(=O)c2c[nH]c(=O)[nH]c2=O)NC(=O)C2(CC2)CN1 [B6-D2-Y/11] | 102.523% | – | – | – |
| O=C1CCSSCCNC(=O)C2(CC2)CNC(=O)[C@H](CO)NC(=O)[C@H](CCCCNC(=O)c2ccc(Cl)s2)N1 [X D1 S B6] | – | 97.6% | 98.2% | – |
| O=C(COc1ccccc1)NCCCC[C@@H]1NC(=O)CCNC(=O)[C@@H](CO)NC(=O)CCSSCCNC1=O [s-B2-D1/13] | 112.63% | – | – | – |
| CC[C@H](C)[C@@H]1NC(=O)CCSSCCNC(=O)[C@H](CNC(=O)c2ccc(Cl)s2)NC(=O)CCNC1=O [X I B2 D3] | – | 72.9% | 70.2% | – |
| O=C(Cc1c[nH]c2ccccc12)NCCCCC1NC(=O)CCSSCCNC(=O)C(Cc2ccc(O)cc2)NC(=O)C2CCCN(C2)C1=O (centres unmarked) [D1-B4-y/12] | 103.012% | – | – | – |
| O=C(COc1ccccc1)NCCCC[C@@H]1NC(=O)[C@H](Cc2c[nH]c3ccccc23)NC(=O)CCSSCCNC(=O)[C@@H]2CCCN2C1=O [W-D1-B1/13] ([Mpa]WK(Phenoxyacetyl)P-Cysteamide; disulfide 1-C) | 96.359% | – | – | – |
| Cc1cc(C(=O)NCCCC[C@@H]2NC(=O)CCNC(=O)[C@@H](CO)NC(=O)CCSSCCNC2=O)no1 [s-B2-D1/3] | 111.495% | – | – | – |
| CC[C@H](C)[C@@H]1NC(=O)CCSSCCNC(=O)[C@H](CNC(=O)c2ccc(Cl)s2)NC(=O)[C@@H]2CCCN2C1=O [X I B1 D3] ([Mpa]IP[Dap](2Thenoyl(5-Cl))-Cysteamide; disulfide 1-C) | – | 91.3% | 90.1% | – |

| Structure (SMILES) | percent residual thrombin activity | % thrombin activity, Original screen | % thrombin activity, Repeat screen | also measured |
| --- | --- | --- | --- | --- |
| O=C1CCSSCCNC(=O)C2CCCN2C(=O)C2CC(NC(=O)c3ccc(Cl)s3)CN2C(=O)C(Cc2ccc(O)cc2)N1 (centres unmarked) [X Y D5 B1] ([Mpa]Y[ξPro(4-NHCO(5-Cl-2-thienyl))]P-Cysteamide; disulfide 1-C; configuration not given here) | – | 92.3% | 97.0% | – |
| CC(C)CC(=O)NCCC[C@@H]1NC(=O)C2(CC2)CNC(=O)CCSSCCNC(=O)[C@H](Cc2ccc(O)cc2)NC1=O [B6-D2-Y/8] | 103.129% | – | – | – |
| O=C1CCSSCCNC(=O)[C@@H]2CCCN2C(=O)[C@H](CCCCNC(=O)c2c[nH]c(=O)[nH]c2=O)NC(=O)[C@H](Cc2c[nH]c3ccccc23)N1 [W-D1-B1/11] ([Mpa]WK(Isoorotoyl)P-Cysteamide; disulfide 1-C) | 99.1805% | – | – | – |
| O=C1CCNC(=O)[C@H](Cc2c[nH]cn2)NC(=O)CCSSCCNC(=O)[C@H](CCCNC(=O)c2c[nH]c(=O)cn2)N1 [H-B2-D2/9] | 106.277% | – | – | – |
| O=C(COc1ccccc1)NCCCC[C@@H]1NC(=O)[C@@H](Cc2c[nH]c3ccccc23)NC(=O)[C@H]2CCCN(C2)C(=O)CCSSCCNC1=O [B4-w-D1/13] | 115.4% | – | – | – |
| CC(C)CC(=O)NCCC[C@@H]1NC(=O)[C@H](CO)NC(=O)[C@@H]2CCCN2C(=O)CCSSCCNC1=O [B1-s-D2/8] ([Mpa]PS[Orn](Isovaleryl)-Cysteamide; disulfide 1-C) | 104.868% | – | – | – |
| O=C1CCSSCCNC(=O)[C@H]2CCCN(C2)C(=O)[C@H](CCCCNC(=O)c2c[nH]c(=O)cn2)NC(=O)[C@H](Cc2ccc(O)cc2)N1 [Y-D1-B4/9] | 103.469% | – | – | – |
| O=C(NC[C@@H]1NC(=O)[C@@H]2CCCN2C(=O)CCSSCCNC(=O)[C@@H](Cc2ccccc2)NC1=O)c1ccc(Cl)s1 [X B1 D3 f] ([Mpa]P[Dap](2Thenoyl(5-Cl))[dF]-Cysteamide; disulfide 1-C) | – | 86.2% | 88.2% | – |
| O=C1CCNC(=O)[C@H](CO)NC(=O)[C@H](CCCNC(=O)c2ccc(Cl)s2)NC(=O)CCSSCCN1 [X D2 S B2] | – | 105.4% | 107.4% | – |
| O=C1CCSSCCNC(=O)[C@H](CCCCNC(=O)c2c[nH]c(=O)[nH]c2=O)NC(=O)[C@H](Cc2c[nH]cn2)NC(=O)c2ccc(cc2)CN1 [B3-H-D1/11] | 112.941% | – | – | – |
| O=C1CCSSCCNC(=O)[C@H](CO)NC(=O)[C@H](CNC(=O)c2ccc(Cl)s2)NC(=O)CCN1 [X B2 D3 S] | – | 83.8% | 76.6% | % thrombin activity, Original screen (listed as X B2 D3 s): 102.4%; % thrombin activity, Repeat screen (listed as X B2 D3 s): 99.4% |
| CC(C)C1NC(=O)C2CCCN2C(=O)C(CNC(=O)c2ccc(Cl)s2)NC(=O)CCSSCCNC1=O (centres unmarked) [X D3 B1 v] ([Mpa][Dap](2Thenoyl(5-Cl))PV-Cysteamide; disulfide 1-C; configuration not given here) | – | 92.1% | 95.4% | % thrombin activity, Original screen (listed as X D3 B1 V): 98.0%; % thrombin activity, Repeat screen (listed as X D3 B1 V): 99.7% |
| O=C1CCSSCCNC(=O)[C@H](Cc2ccccc2)NC(=O)[C@H]2CCCN(C2)C(=O)[C@H](CNC(=O)c2ccc(Cl)s2)N1 [X D3 B4 F] | – | 66.8% | 62.9% | – |
| O=C1CCSSCCNC(=O)[C@H](Cc2c[nH]c3ccccc23)NC(=O)[C@H](CCCNC(=O)c2ccccc2)NC(=O)C2(CC2)CN1 [B6-D2-W/1] | 97.8863% | – | – | – |
| CC[C@H](C)[C@@H]1NC(=O)c2ccc(cc2)CNC(=O)[C@@H](NC(=O)c2ccc(Cl)s2)CSSCCNC(=O)CNC1=O [C B3 I G] | – | 106.0% | 113.6% | – |
| CC[C@H](C)[C@@H]1NC(=O)[C@H](CCCNC(=O)COc2ccccc2)NC(=O)CCSSCCNC(=O)CCNC1=O [D2-I-B2/13] | 114.645% | – | – | – |
